Laboratory results published in patent publication US20220213126A1, “SMALL MOLECULE AUTOPHAGY INDUCERS FOR THE TREATMENT OF CANCER AND NEURODEGENERATIVE DISEASES” (John Wayne Cancer Institute, priority 2019, published 2022).
pIC50: −log10 of the molar value. Where “and” joins values, the source holds several entries; their conditions need not be identical. Identical values can stand only once.

Key:
[1] = Pharmacokinetics of BC-4 and BC-5 in mouse plasma and brain; format: in vivo; conditions: Balb/c mice, single oral dose 5 mg/kg
Method: Pharmacokinetics of BC-4 and BC-5 were compared to BC-1. Pharmacokinetics were assessed in Balb/c mice administered a single oral dose of 5 mg/kg of the indicated compound (Tables 11 and 12).

[2] = Pharmacokinetics of BC-2 and BC-3 in mouse plasma and brain; format: in vivo, mice
Method: Pharmacokinetics were assessed in mice administered a single oral dose of 5 mg/kg of the indicated compound (Tables 9 and 10).

U251 = assay: GBM cell viability, Alamar blue, 72 hours; format: cell-based; conditions: Homo sapiens, U-251, U251, established glioma cell line
Method: (§1) The effect of VMY-BC-1 was tested on a panel of GBM cell lines. […] In this study 100 μM was the highest drug concentration used, with 3-fold dilution for a 10 dose response curve.

GBM8 = assay: GBM cell viability, Alamar blue, 72 hours; format: cell-based; conditions: GBM8, patient-derived cell line
Method: as §1

GBM4 = assay: GBM cell viability, Alamar blue, 72 hours; format: cell-based; conditions: GBM4, patient-derived cell line
Method: as §1

U87 = assay: GBM cell viability, Alamar blue, 72 hours; format: cell-based; conditions: Homo sapiens, U-87 MG, U87, established glioma cell line
Method: as §1

GL261 = assay: GBM cell viability, Alamar blue, 72 hours; format: cell-based; conditions: Mus musculus, GL261, established glioma cell line
Method: as §1

[3] = Brain, single oral dose 5 mg/kg
[4] = Plasma, single oral dose 5 mg/kg
[5] = single oral dose 5 mg/kg, 0 min
[6] = single oral dose 5 mg/kg, 30 min
[7] = single oral dose 5 mg/kg, 60 min
[8] = single oral dose 5 mg/kg, 180 min
[9] = single oral dose 5 mg/kg, 360 min
[10] = single oral dose 5 mg/kg, 900 min
[11] = single oral dose 5 mg/kg, 1440 min

CC=C(c1ccc(OC)cc1)C(CC)c1cc(OC)cc(B(O)O)c1 (racemic) [BC-4]
Concentrations in plasma vs brain [1]: higher concentrations in plasma than brain
Brain level, Mean (4) ± SE ([1]; 0 min): BQL
Plasma level, Mean (4) ± SE ([1]; 0 min): BQL
Brain level, Mean (4) ± SE ([1]; 30 min): 164 ± 16 ng/g
Plasma level, Mean (4) ± SE ([1]; 30 min): 255 ± 20 ng,/ml
Brain level, Mean (4) ± SE ([1]; 60 min): 139 ± 14 ng/g
Plasma level, Mean (4) ± SE ([1]; 60 min): 163 ± 20 ng,/ml
Brain level, Mean (4) ± SE ([1]; 180 min): BQL
Plasma level, Mean (4) ± SE ([1]; 180 min): 36 ± 6 ng,/ml
Brain level, Mean (4) ± SE ([1]; 360 min): BQL
Plasma level, Mean (4) ± SE ([1]; 360 min): 22 ± 3 ng,/ml
Brain level, Mean (4) ± SE ([1]; 900 min): BQL
Plasma level, Mean (4) ± SE ([1]; 900 min): BQL
Brain level, Mean (4) ± SE ([1]; 1440 min): BQL
Plasma level, Mean (4) ± SE ([1]; 1440 min): BQL
Tmax ([1]; Brain): 30 min
T½ ([1]; Brain): 127 min
terminal elimination rate constant (lambda z) ([1]; Brain): 0.00546 min⁻¹
AUC(0-t) ([1]; Plasma): 25300 ng·min/mL
AUC(inf) ([1]; Plasma): 28300 ng·min/mL
Cmax ([1]; Plasma): 255 ng/mL
Tmax ([1]; Plasma): 30 min
T½ ([1]; Plasma): 94.5 min
terminal elimination rate constant (lambda z) ([1]; Plasma): 0.00734 min⁻¹

CCOc1ccc(/C=C/c2cc(OC)cc(B(O)O)c2)cc1 [BC-2, (E)-(3-(4-ethoxystyryl)-5-methoxyphenyl) Boronic Acid]
AUC(0-inf) ([2]; mouse, in vivo, po, 5 mg/kg): 2000 ng·h/mL
AUC(inf) ([2]; mouse, in vivo, po, 5 mg/kg): 504000 ng·min/mL
Cmax ([2]; mouse, in vivo, po, 5 mg/kg): 841 ng/mL and 4140 ng/g
Concentration in brain vs plasma ([2]; mouse, in vivo, po, 5 mg/kg): higher concentration in brain than in plasma
Tmax ([2]; mouse, in vivo, po, 5 mg/kg): 60 min
T½ ([2]; mouse, in vivo, po, 5 mg/kg): 54.8 min
concentration at 30 min ([2]; mouse, in vivo, po, 5 mg/kg): 841 ng/mL and 3420 ng/g
concentration at 60 min ([2]; mouse, in vivo, po, 5 mg/kg): 732 ng/mL and 4140 ng/g
concentration at 180 min ([2]; mouse, in vivo, po, 5 mg/kg): 281 ng/mL and 983 ng/g
concentration at 360 min ([2]; mouse, in vivo, po, 5 mg/kg): 43 ng/mL and 94 ng/g
Tmax ([2]; mouse, in vivo, po, 5 mg/kg, Tmax): 30 min
half-life ([2]; mouse, in vivo, po, 5 mg/kg, T½): 72.8 min

COc1cc(/C=C/c2ccc(F)cc2)cc(B(O)O)c1 [BC-3]
Kd (Lambda Z) [2, 3]: 0.000342 s⁻¹
Tmax [2, 3]: 30 min
T½ [2, 3]: 33.8 min
AUC(0-t) [2, 4]: 25500 ng·min/mL
AUC(inf) [2, 4]: 26300 ng·min/mL
Cmax [2, 4]: 439 ng/mL
Kd (Lambda Z) [2, 4]: 0.000358 s⁻¹
Tmax [2, 4]: 30 min
T½ [2, 4]: 32.3 min
Concentration in brain vs plasma ([2]; single oral dose 5 mg/kg): higher concentration in brain than in plasma
Brain level, Mean (4) ± SE [2, 5]: BQL
Plasma level, Mean (4) ± SE [2, 5]: BQL
Brain level, Mean (4) ± SE [2, 6]: 1951 ± 323 ng/g
Plasma level, Mean (4) ± SE [2, 6]: 439 ± 67 ng/mL
Brain level, Mean (4) ± SE [2, 7]: 1233 ± 219 ng/g
Plasma level, Mean (4) ± SE [2, 7]: 217 ± 28 ng/mL
Brain level, Mean (4) ± SE [2, 8]: 95 ± 26 ng/g
Plasma level, Mean (4) ± SE [2, 8]: 17 ± 10 ng/mL
Brain level, Mean (4) ± SE [2, 9]: BQL
Plasma level, Mean (4) ± SE [2, 9]: BQL
Brain level, Mean (4) ± SE [2, 10]: BQL
Plasma level, Mean (4) ± SE [2, 10]: BQL
Brain level, Mean (4) ± SE [2, 11]: BQL
Plasma level, Mean (4) ± SE [2, 11]: BQL

CCC(=C(c1ccccc1)c1ccc(OC)cc1)c1cc(OC)cc(B(O)O)c1 [BC-5]
Concentrations in plasma vs brain [1]: higher concentrations in plasma than brain
Brain level, Mean (4) ± SE ([1]; 0 min): BQL
Plasma level, Mean (4) ± SE ([1]; 0 min): BQL
Brain level, Mean (4) ± SE ([1]; 30 min): 142 ± 32 ng/g
Plasma level, Mean (4) ± SE ([1]; 30 min): 1599 ± 40 ng,/ml
Brain level, Mean (4) ± SE ([1]; 60 min): 205 ± 39 ng/g
Plasma level, Mean (4) ± SE ([1]; 60 min): 1524 ± 106 ng,/ml
Brain level, Mean (4) ± SE ([1]; 180 min): 105 ± 26 ng/g
Plasma level, Mean (4) ± SE ([1]; 180 min): 742 ± 91 ng,/ml
Brain level, Mean (4) ± SE ([1]; 360 min): 28 ± 6 ng/g
Plasma level, Mean (4) ± SE ([1]; 360 min): 290 ± 35 ng,/ml
Brain level, Mean (4) ± SE ([1]; 900 min): BQL
Plasma level, Mean (4) ± SE ([1]; 900 min): 49 ± 10 ng,/ml
Brain level, Mean (4) ± SE ([1]; 1440 min): BQL
Plasma level, Mean (4) ± SE ([1]; 1440 min): 15 ± 9 ng,/ml
Tmax ([1]; Brain): 60 min
T½ ([1]; Brain): 103 min
terminal elimination rate constant (lambda z) ([1]; Brain): 0.00672 min⁻¹
AUC(0-t) ([1]; Plasma): 376000 ng·min/mL
AUC(inf) ([1]; Plasma): 381000 ng·min/mL
Cmax ([1]; Plasma): 1600 ng/mL
Tmax ([1]; Plasma): 30 min
T½ ([1]; Plasma): 251 min
terminal elimination rate constant (lambda z) ([1]; Plasma): 0.00276 min⁻¹

Oc1ccc(C=Cc2cc(O)cc(O)c2)cc1 [Resveratrol, resveratrol, reference compound]
Drug level in plasma and brain, all time points ([2]; single oral dose 5 mg/kg): below quantification level
Brain level, Mean (4) ± SE [2, 5]: BQL
Plasma level, Mean (4) ± SE [2, 5]: BQL
Brain level, Mean (4) ± SE [2, 6]: BQL
Plasma level, Mean (4) ± SE [2, 6]: BQL
Brain level, Mean (4) ± SE [2, 7]: BQL
Plasma level, Mean (4) ± SE [2, 7]: BQL
Brain level, Mean (4) ± SE [2, 8]: BQL
Plasma level, Mean (4) ± SE [2, 8]: BQL
Brain level, Mean (4) ± SE [2, 9]: BQL
Plasma level, Mean (4) ± SE [2, 9]: BQL
Brain level, Mean (4) ± SE [2, 10]: BQL
Plasma level, Mean (4) ± SE [2, 10]: BQL
Brain level, Mean (4) ± SE [2, 11]: BQL
Plasma level, Mean (4) ± SE [2, 11]: BQL
pIC50 (U251): 4.92
pIC50 (GBM8): 4.58
pIC50 (GBM4): 4.39
pIC50 (U87): 4.40
pIC50 (GL261): 4.98
